Measurements reported in EP0783524B1, “PEPTIDES AND PHARMACEUTICAL COMPOSITIONS COMPRISING THEM” (YEDA RESEARCH AND DEVELOPMENT CO. LTD., priority 1994, dated 2005).

Assays:
anti-idiotypic T cells = assay: Immunization followed by spleen T cell proliferation assay (anti-idiotypic response), NOD mice; format: in vivo; details: NOD female mice, 12 weeks old, 100 µg per mouse subcutaneously in IPA; tested 2 or 5 weeks after treatment; C9VDJ peptide 5 µg/ml (Figure 9)
Description: The peptides are useful for the production of a medicine for vaccination against IDDM. • Figure 1. Determination by PCR of TCR, Vβ gene usage in the C9 clone. Lanes 1-19: the 19 different Vβ amplification reactions with the Cβ oligonucleotide primer. Lane s.m.: fx/Hae III size marker. The gel was hybridized with an internal Cβ oligonucleotide probe and therefore the size marker is printed. The two positive bands for Vβ2 and Vβ12 indicate the existence of these segments in the C9 clone. • Figure 2. The presence of sequences homologous to the C9 VDJ rearrangement determined by PCR in different T-cell lines using the specific C9 VDJ oligonucleotide primer. The first four lanes show the results of the NOD lines C9 (lane 1), C7 (2), N4 (3), and an anti-ovalbumin line (4). […] T cell responses to hep60 (idiotype) and to the C9 clone (anti-idiotype) were measured in naive female and male NOD mice. […] The proliferative response was measured'by adding 3H-thymidine to the culture for the last 16 h of a 72 h stimulation. The incorporated 3H-thymidine was measured on a β-counter and the stimulation index (SI) was calculated as cpm incorporation in the presence of antigen/cpm incorporation in the absence of antigen. […]

NOD mice = details: results of refs (3) and (4); cited from earlier work

VLGGGCALLRCIPALDSLTPANED (SEQ ID NO:5) [p277]
anti-C9 response (proliferation to C9VDJ peptide) after peptide treatment (anti-idiotypic T cells): induces anti-C9 response
prevention or reversal of diabetes by vaccination (NOD mice): could prevent (3) or even reverse diabetes
